One experiment has as its target HDAC6 (Homo sapiens (Human), UniProt Q9UBN7). Description: HDAC in vitro enzymatic assay (fluorescence). To be noted: top concentration 2 μM. Type of experiment: biochemical. The protocol: Biological Tests Method for Measurement of Enzymatic Activity of HDACs Materials & Methods
All Examples were tested in HDAC1, 2, 3, 6 and 8 in vitro enzymatic assays. The assay principle is well known (Hauser et al. 2009, Bradner et al. 2010) and all necessary reagents like enzymes, substrates, developer and reference compounds are commercially available (see e.g. BPS Biosciences http://www.bpsbioscience.com/). A series of dilutions of the compounds were prepared with a top concentration of 200 μM (2 μM for HDAC6). The enzymatic reactions were conducted in a mixture containing assay buffer, bovine serum albumin, HDAC substrate, and a test compound. After enzymatic reaction, developer was added and after an additional incubation time, fluorescence intensity was measured at an excitation wavelength of 360 nm and an emission wavelength of 460 nm. A selection of the Examples were tested in a full HDAC panel containing HDAC1, 2, 3, 4, 5, 6, 7, 8, 9, 10 and 11 in vitro enzymatic assays. The tests were performed as above except that a series of dilutions of the compounds were prepared with a top concentration of 10 μM for all HDACs.

A further experiment concerns AMO-1 (plasmacytom). Description: CellTiter-Blue cell viability assay. It is filed as cell-based. To be noted: Homo sapiens, AMO1; AMO-1 cells, 72 hours of treatment; read-out: IC50 AMO-1 (cell viability). The protocol: (§1) Method for Measurement of Cell Viability
(§2) The CellTiter-Blue® Cell Viability Assay (Promega) provides a homogeneous, fluorometric method for estimating the number of viable cells present in multi-well plates. The assay uses the indicator dye resazurin to measure the metabolic capacity of cells. Viable cells retain the ability to reduce resazurin into resorufin, which is highly fluorescent.
(§3) Stock solutions (10 mM in DMSO) of compounds were serially diluted 1:2 in 11 concentrations. 50 nL/well (10 mM compound stock in DMSO) was acoustically dispensed in 384-well assay plates with an acoustic dispenser (EDC Biosystems ATS-100AV). Final starting concentration in the assay was 20 μM (0.2% DMSO) for test compounds. […] After 72 hours, Celltiter Blue reagent (Promega #G8081) was diluted 1:10 with PBS and then added to wells (5 μL/well). The plates were incubated for 2 hours following addition of reagent. […] Results were calculated as % cell viability compared to background (cells treated with 0.2% DMSO).

Experiment [1] deals with PBMC (peripheral blood mononuclear cells from healthy donors). The experiment in a line: CellTiter-Blue cell viability assay. The note with it: healthy PBMC, 72 hours of treatment; read-out: IC50 healthy PBMC (cell viability). Type of experiment: cell-based. The protocol: as §1, §2, §3
Another experiment relates to U266 (multiple myelom). Description: CellTiter-Blue cell viability assay. To be noted: Homo sapiens, U-266; U266 cells, 72 hours of treatment; read-out: IC50 U266 (cell viability). Type of experiment: cell-based. The protocol: as §1, §2, §3
In a further experiment the test system is PaCa2 (pancreatic). Description: CellTiter-Blue cell viability assay. To be noted: PaCa-2; PaCa2 cells, 72 hours of treatment; read-out: IC50 PaCa2 (cell viability). Type of experiment: cell-based. The procedure:
as §1, §2, §3

The target of a further experiment is HDAC2 (Homo sapiens (Human), UniProt Q92769). Description: HDAC in vitro enzymatic assay (fluorescence). To be noted: read-out: IC50 HDAC2; selectivity profiling; top concentration 200 μM.
HDAC2, sequence (Q92769 whole entry): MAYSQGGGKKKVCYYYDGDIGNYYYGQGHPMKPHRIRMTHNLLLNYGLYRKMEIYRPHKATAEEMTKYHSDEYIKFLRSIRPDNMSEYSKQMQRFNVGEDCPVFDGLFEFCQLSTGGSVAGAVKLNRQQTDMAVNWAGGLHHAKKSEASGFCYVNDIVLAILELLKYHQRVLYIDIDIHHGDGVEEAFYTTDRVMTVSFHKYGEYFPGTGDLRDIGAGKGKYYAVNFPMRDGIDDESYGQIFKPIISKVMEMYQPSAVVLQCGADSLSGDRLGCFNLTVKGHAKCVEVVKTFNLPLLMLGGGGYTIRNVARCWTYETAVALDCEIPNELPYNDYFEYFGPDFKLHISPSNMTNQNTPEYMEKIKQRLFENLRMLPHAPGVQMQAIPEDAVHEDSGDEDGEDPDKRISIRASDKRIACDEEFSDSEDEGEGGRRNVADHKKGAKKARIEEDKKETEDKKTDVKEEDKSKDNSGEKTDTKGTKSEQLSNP
A further experiment has as its target HDAC3 (Homo sapiens (Human), UniProt O15379). The experiment in a line: HDAC in vitro enzymatic assay (fluorescence). To be noted: read-out: IC50 HDAC3; selectivity profiling; top concentration 200 μM.
The next experiment concerns the target HDAC8 (Homo sapiens (Human), UniProt Q9BY41). Description: HDAC in vitro enzymatic assay (fluorescence). To be noted: read-out: IC50 HDAC8; selectivity profiling; top concentration 200 μM.
The next experiment concerns the target HDAC1 (Homo sapiens (Human), UniProt Q13547). Description: HDAC in vitro enzymatic assay (fluorescence). To be noted: read-out: IC50 HDAC1; selectivity profiling; top concentration 200 μM.
Setting [2] is: read-out: IC50 values for inhibition of HDAC6.
The mark [3] stands for this setting: selectivity profiling, read-out: IC50 HDAC6.

Like-named read-outs stand apart in the source and are kept apart here.

HDAC8, sequence (Q9BY41 whole entry): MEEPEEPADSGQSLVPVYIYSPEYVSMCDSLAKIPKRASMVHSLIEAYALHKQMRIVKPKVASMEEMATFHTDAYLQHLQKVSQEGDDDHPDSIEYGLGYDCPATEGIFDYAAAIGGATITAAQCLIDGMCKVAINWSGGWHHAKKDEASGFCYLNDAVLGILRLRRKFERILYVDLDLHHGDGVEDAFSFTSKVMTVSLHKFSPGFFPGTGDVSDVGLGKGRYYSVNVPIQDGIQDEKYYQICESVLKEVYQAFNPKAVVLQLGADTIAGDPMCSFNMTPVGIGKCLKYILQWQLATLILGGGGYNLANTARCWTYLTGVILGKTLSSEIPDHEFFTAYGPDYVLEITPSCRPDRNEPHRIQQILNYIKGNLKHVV
HDAC1, sequence (Q13547 whole entry): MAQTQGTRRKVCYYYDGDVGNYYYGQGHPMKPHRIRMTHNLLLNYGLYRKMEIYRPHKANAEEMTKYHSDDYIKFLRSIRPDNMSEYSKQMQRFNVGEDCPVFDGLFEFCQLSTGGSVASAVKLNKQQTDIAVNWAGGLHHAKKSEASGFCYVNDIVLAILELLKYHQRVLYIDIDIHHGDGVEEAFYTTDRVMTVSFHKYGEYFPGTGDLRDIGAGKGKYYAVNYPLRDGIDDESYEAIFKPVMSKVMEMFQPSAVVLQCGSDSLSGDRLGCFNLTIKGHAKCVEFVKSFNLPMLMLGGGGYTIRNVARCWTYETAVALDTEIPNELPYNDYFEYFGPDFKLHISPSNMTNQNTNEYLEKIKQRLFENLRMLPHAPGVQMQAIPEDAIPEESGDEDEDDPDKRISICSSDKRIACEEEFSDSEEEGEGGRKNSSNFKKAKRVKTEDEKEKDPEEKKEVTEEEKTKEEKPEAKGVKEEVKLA
HDAC3, sequence (O15379 whole entry): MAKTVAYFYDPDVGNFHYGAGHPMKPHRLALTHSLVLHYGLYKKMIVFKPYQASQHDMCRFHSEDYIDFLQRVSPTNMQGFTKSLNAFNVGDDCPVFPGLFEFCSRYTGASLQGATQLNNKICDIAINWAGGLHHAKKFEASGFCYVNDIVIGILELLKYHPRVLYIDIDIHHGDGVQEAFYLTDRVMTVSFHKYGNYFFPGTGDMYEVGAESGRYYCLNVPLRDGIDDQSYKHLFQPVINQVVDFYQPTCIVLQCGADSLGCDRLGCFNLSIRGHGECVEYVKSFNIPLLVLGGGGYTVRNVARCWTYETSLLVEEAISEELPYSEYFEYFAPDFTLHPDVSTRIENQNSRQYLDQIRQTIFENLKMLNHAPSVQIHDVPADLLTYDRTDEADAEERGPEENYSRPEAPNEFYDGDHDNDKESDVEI
HDAC3, sequence (Q9Y618 395-489 partner): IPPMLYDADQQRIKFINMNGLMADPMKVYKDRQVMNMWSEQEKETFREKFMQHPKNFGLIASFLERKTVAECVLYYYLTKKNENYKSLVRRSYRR

For the molecule `O=C(NO)c1ccc2nc(-c3ccc(Br)cc3)[nH]c2c1` [Example 3, 2-(4-bromophenyl)-N-hydroxy-1H-benzimidazole-6-carboxamide], the IC50 was 45 nM at HDAC6 (setting [2]); 6.3 µM with AMO-1 (plasmacytom); over 20 µM in [1]; 2900 nM in the experiment with U266 (multiple myelom); 6000 nM in the experiment with PaCa2 (pancreatic).

As for `O=C(NO)c1ccc2nc(-c3ccc(Oc4ccccc4)cc3)[nH]c2c1` [Example 8, N-hydroxy-2-(4-phenoxyphenyl)-1H-benzimidazole-6-carboxamide], the IC50 with AMO-1 (plasmacytom) is 2.3 µM; in experiment [1], over 20 µM; in the experiment on U266 (multiple myelom), 2000 nM; with PaCa2 (pancreatic) it was 1700 nM.

Regarding `COc1ccc2cc(-c3nc4ccc(C(=O)NO)cc4[nH]3)ccc2c1` [Example 10, N-hydroxy-2-(6-methoxynaphthalen-2-yl)-1H-benzimidazole-6-carboxamide], the IC50 in the experiment with AMO-1 (plasmacytom) was 2.2 µM; in experiment [1], over 20 µM; with U266 (multiple myelom), 2100 nM; with PaCa2 (pancreatic), 1200 nM.

`O=C(NO)c1ccc2nc(-c3cccc(C(F)(F)F)c3Cl)[nH]c2c1` [Example 34, 2-[2-chloro-3-(trifluoromethyl)phenyl]-N-hydroxy-1H-benzimidazole-6-carboxamide]: the IC50 was 10 µM with AMO-1 (plasmacytom), over 20 µM in experiment [1], 3900 nM in the experiment with U266 (multiple myelom) and 12000 nM in the experiment with PaCa2 (pancreatic).

`O=C(NO)c1ccc2nc(-c3ccc(-c4cccc(Cl)c4)cc3)[nH]c2c1` [Example 151, 2-(3′-chlorobiphenyl-4-yl)-N-hydroxy-1H-benzimidazole-6-carboxamide]: the IC50 with AMO-1 (plasmacytom) was 1.9 µM; in [1] it was over 20 µM; with U266 (multiple myelom) it was 490 nM; in the experiment on PaCa2 (pancreatic), 1000 nM.

Take `CC(C)(C)c1ccc(-c2nc3ccc(C(=O)NO)cc3[nH]2)cc1` [Example 159, 2-(4-tert-butylphenyl)-N-hydroxy-1H-benzimidazole-6-carboxamide]: the IC50 on HDAC6 (setting [2]) was 19 nM; with AMO-1 (plasmacytom), 6.3 µM; in [1] it was over 20 µM; with U266 (multiple myelom) it was 1200 nM; with PaCa2 (pancreatic), 2100 nM.

Take `CCCCCCCCCc1ccc(-c2nc3ccc(C(=O)NO)cc3[nH]2)cc1` [Example 161, 2-(4-nonylphenyl)-N-hydroxy-1H-benzimidazole-6-carboxamide]: the IC50 in the experiment on AMO-1 (plasmacytom) is 5.5 µM; in [1], over 20 µM; in the experiment with U266 (multiple myelom), 640 nM; with PaCa2 (pancreatic) it was 610 nM.

As to `O=C(NO)c1ccc2nc(-c3ccc(-c4cccc(Cl)c4)s3)[nH]c2c1` [Example 177, 2-[5-(3-chlorophenyl)thiophen-2-yl]-N-hydroxy-1H-benzimidazole-6-carboxamide], the IC50 on HDAC6 (setting [2]) was 5.1 nM; in the experiment with AMO-1 (plasmacytom), 3.5 µM; in experiment [1] it was over 20 µM; with U266 (multiple myelom), 620 nM; in the experiment on PaCa2 (pancreatic), 1100 nM.

Regarding `CN1CCN(Cc2ccc(-c3nc4ccc(C(=O)NO)cc4[nH]3)cc2)CC1` [Example 207, N-hydroxy-2-{4-[(4-methylpiperazin-1-yl)methyl]phenyl}-1H-benzimidazole-6-carboxamide], the IC50 is 7 nM at HDAC6 (setting [3]); 7 nM on HDAC6 (setting [2]); 7.8 µM on HDAC2; 250 nM at HDAC3; 1800 nM on HDAC8; 700 nM at HDAC1.

For the molecule `COc1c(C)cc(-c2nc3cc(C(=O)NO)ccc3n2C)cc1C` [Example 228, N-hydroxy-2-(4-methoxy-3,5-dimethylphenyl)-1-methyl-1H-benzimidazole-5-carboxamide], the IC50 on HDAC6 (setting [3]) was determined as 3.5 nM; at HDAC6 (setting [2]), 3.5 nM; on HDAC2 it was 20 µM; on HDAC3 it was 216 nM; on HDAC8, 100 nM; at HDAC1, 2000 nM.

The record behind these values is patent US10512634B2, “Benzimidazole derivates useful as inhibitors of mammalian histone deacetylase activity” (KANCERA AB, priority 2015, dated 2019).
